pIC50: −log10 of the molar value.

The target in the assay is p300 histone acetyltransferase (Homo sapiens, UniProt Q09472). In words: in vitro histone acetyltransferase assay with purified human p300. In kind it is biochemical.
Chain of p300 histone acetyltransferase (Q09472 2-2414): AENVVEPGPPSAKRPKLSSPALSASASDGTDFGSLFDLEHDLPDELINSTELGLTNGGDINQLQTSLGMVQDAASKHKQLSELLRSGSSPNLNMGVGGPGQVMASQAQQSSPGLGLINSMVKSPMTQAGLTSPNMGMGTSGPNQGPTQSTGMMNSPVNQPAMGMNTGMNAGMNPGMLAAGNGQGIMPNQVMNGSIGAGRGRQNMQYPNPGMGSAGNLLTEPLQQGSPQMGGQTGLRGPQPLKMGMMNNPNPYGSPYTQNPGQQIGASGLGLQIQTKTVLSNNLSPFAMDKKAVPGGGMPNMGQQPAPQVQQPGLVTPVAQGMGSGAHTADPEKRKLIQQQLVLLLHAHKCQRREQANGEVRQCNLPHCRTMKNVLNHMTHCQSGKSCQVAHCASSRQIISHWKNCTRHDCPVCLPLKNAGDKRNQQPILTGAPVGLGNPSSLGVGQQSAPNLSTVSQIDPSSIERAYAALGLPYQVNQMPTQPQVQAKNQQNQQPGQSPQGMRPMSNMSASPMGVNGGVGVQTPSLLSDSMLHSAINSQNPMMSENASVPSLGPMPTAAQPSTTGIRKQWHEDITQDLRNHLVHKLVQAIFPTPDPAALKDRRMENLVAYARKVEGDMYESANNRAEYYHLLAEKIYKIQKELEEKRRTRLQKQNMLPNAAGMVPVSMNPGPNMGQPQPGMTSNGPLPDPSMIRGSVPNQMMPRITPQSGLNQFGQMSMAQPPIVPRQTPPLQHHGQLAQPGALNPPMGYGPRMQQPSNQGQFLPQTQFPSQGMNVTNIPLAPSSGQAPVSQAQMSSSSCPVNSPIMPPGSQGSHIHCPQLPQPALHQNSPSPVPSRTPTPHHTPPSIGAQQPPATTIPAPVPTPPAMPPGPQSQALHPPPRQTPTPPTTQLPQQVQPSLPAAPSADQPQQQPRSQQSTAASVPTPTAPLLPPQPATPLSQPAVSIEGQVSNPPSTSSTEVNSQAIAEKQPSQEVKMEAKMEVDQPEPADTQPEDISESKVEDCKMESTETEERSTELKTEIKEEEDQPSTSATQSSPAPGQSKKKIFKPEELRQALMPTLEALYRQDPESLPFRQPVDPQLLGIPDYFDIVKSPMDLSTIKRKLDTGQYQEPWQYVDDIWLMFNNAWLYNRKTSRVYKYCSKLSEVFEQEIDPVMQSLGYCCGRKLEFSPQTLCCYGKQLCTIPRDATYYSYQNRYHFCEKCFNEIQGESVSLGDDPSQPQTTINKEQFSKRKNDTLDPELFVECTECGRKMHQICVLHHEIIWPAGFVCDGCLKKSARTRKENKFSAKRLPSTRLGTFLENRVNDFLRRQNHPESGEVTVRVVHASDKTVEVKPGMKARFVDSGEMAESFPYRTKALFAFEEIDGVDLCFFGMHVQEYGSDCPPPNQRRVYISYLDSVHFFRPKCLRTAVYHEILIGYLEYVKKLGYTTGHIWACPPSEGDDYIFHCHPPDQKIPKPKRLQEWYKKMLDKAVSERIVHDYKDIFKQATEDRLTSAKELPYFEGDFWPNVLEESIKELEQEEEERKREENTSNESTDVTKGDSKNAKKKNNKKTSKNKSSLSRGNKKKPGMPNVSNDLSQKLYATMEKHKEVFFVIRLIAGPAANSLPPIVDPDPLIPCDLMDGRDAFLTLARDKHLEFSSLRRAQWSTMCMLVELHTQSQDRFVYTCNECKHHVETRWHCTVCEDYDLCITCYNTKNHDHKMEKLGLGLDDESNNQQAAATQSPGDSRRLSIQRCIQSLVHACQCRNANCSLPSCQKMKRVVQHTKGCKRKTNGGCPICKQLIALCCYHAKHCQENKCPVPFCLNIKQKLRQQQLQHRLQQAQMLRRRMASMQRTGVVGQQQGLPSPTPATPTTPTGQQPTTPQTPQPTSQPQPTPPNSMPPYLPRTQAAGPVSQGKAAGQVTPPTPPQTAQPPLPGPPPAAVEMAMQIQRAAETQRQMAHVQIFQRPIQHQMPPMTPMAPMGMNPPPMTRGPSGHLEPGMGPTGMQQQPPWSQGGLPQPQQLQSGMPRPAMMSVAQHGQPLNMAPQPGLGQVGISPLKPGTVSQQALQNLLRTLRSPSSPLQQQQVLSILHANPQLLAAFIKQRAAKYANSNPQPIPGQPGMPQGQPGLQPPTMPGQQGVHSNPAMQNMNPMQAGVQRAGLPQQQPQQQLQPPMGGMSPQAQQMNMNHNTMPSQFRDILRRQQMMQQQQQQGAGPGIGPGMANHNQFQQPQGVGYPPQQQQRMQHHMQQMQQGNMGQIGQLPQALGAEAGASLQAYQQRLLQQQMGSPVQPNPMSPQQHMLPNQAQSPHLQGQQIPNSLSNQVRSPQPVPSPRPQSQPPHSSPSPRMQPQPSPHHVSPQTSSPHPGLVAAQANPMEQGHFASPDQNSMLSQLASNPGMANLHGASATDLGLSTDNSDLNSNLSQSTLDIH

Broadly, the pIC50 is the negative decadic logarithm of the IC50, by convention in mol/L. For the compound `COc1ccc(/C(Cl)=C(/C=O)c2ccc(OC)cc2)cc1` [WD, (Z) 3-chloro-2,3-bis(4-methoxyphenyl)acrylaldehyde], the pIC50 was 5.38.

The values above are taken from PMC3923627 (Cell reports, 2013).
